Reference: the supplement of paper PMC6045584
± gives the standard deviation of the averaged measurements.

Key:
[1] = compound: CC(=O)c1c(C)c2cnc(Nc3ccc(N4CCNCC4)cn3)nc2n(C2CCCC2)c1=O; experiment: surviving fraction relative to DMSO-only wells; higher = less growth inhibition; settings: exposure time: 5 days
How it was run: (§1)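 For each tumour cell line, log-phase cells were put into 384-well plates at 250–500 cells per well, then after 24 hours exposed continuously for five days to inhibitors at 0.5, 1, 5, 10, 50, 100, 500 and 1000 nM. Viability was assessed by CellTiter-Glo luminescence, with surviving fraction expressed relative to the median of DMSO-only wells. Lines were screened three times and retained only if replicate Pearson r exceeded 0.7 and median Z' exceeded 0.3.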

[2] = compound: CC(=O)NCC(=O)N1[C@@H]2CC[C@H]1c1ccc(Nc3ncc(C(F)(F)F)c(NC4CCC4)n3)cc12; experiment: as above; settings: exposure time: 5 days
How it was run: as §1

Test System	surviving fraction ([1]; 0.5 nM)	surviving fraction ([1]; 1 nM)	surviving fraction ([1]; 5 nM)	surviving fraction ([1]; 10 nM)	surviving fraction ([1]; 50 nM)	surviving fraction ([1]; 100 nM)	surviving fraction ([1]; 500 nM)	surviving fraction ([1]; 1000 nM)	surviving fraction ([2]; 0.5 nM)	surviving fraction ([2]; 1 nM)	surviving fraction ([2]; 5 nM)	surviving fraction ([2]; 10 nM)	surviving fraction ([2]; 50 nM)	surviving fraction ([2]; 100 nM)	surviving fraction ([2]; 500 nM)	surviving fraction ([2]; 1000 nM)
JIMT1 BREAST	0.959 ± 0.013	0.9905 ± 0.0018	0.993 ± 0.024	0.964 ± 0.027	1.1 ± 0.03	1 ± 0.031	1.05 ± 0.014	1.01 ± 0.032	0.996 ± 0.044	1.01 ± 0.032	1 ± 0.036	0.97 ± 0.02	1.03 ± 0.053	0.763 ± 0.024	0.705 ± 0.0076	0.593 ± 0.029
JURKAT HAEMATOPOIETIC AND LYMPHOID TISSUE	1.09 ± 0.017	1.11 ± 0.021	1.0573 ± 0.00058	1.07 ± 0.033	1.03 ± 0.034	1.05 ± 0.013	0.847 ± 0.032	0.793 ± 0.018	1.07 ± 0.015	1.06 ± 0.028	1.07 ± 0.012	1.03 ± 0.03	0.286 ± 0.012	0.677 ± 0.018	0.395 ± 0.01	0.305 ± 0.019
KPD BONE	0.924 ± 0.081	0.939 ± 0.029	1.04 ± 0.05	0.961 ± 0.027	0.99 ± 0.069	0.993 ± 0.072	0.775 ± 0.026	0.679 ± 0.041	0.977 ± 0.019	0.987 ± 0.026	0.991 ± 0.07	1.04 ± 0.093	0.903 ± 0.003	0.737 ± 0.033	0.346 ± 0.009	0.124 ± 0.0044
LM7 BONE	0.997 ± 0.1	0.98 ± 0.14	1.108 ± 0.011	1.05 ± 0.032	1.06 ± 0.093	1.09 ± 0.046	0.999 ± 0.12	1.02 ± 0.0049	0.965 ± 0.032	0.951 ± 0.058	1.04 ± 0.051	1.02 ± 0.011	0.921 ± 0.067	0.642 ± 0.037	0.25 ± 0.024	0.13 ± 0.007
LNCAP PROSTATE	0.953 ± 0.0097	0.975 ± 0.087	0.854 ± 0.13	0.857 ± 0.11	0.952 ± 0.15	1.1 ± 0.13	0.961 ± 0.079	0.945 ± 0.16	0.859 ± 0.059	0.872 ± 0.052	0.77 ± 0.08	0.893 ± 0.19	0.416 ± 0.044	0.46 ± 0.046	0.689 ± 0.0089	0.664 ± 0.097
MCF7 BREAST	0.965 ± 0.043	0.8934 ± 0.0072	0.891 ± 0.03	0.902 ± 0.026	0.956 ± 0.048	0.934 ± 0.01	0.925 ± 0.037	0.899 ± 0.032	0.864 ± 0.018	0.858 ± 0.028	0.808 ± 0.034	0.826 ± 0.021	0.776 ± 0.018	0.741 ± 0.027	0.656 ± 0.035	0.549 ± 0.026
MDAMB134 BREAST	1.031 ± 0.0085	1.07 ± 0.023	1.1 ± 0.013	1.07 ± 0.04	1.154 ± 0.0057	1.26 ± 0.22	1.28 ± 0.12	1.25 ± 0.11	0.998 ± 0.048	1.07 ± 0.37	1.01 ± 0.04	1.02 ± 0.11	0.992 ± 0.041	1.25 ± 0.18	1.13 ± 0.12	1.31 ± 0.1
MDAMB361 BREAST	0.924 ± 0.046	0.861 ± 0.13	0.882 ± 0.09	0.825 ± 0.053	0.881 ± 0.083	0.86 ± 0.032	0.861 ± 0.23	0.866 ± 0.021	0.96 ± 0.044	0.939 ± 0.041	0.88 ± 0.038	0.873 ± 0.02	0.922 ± 0.11	1.1 ± 0.05	1.09 ± 0.075	0.928 ± 0.093
MDAMB436 BREAST	0.912 ± 0.09	0.888 ± 0.047	1.01 ± 0.054	0.833 ± 0.032	0.92 ± 0.042	0.915 ± 0.07	0.915 ± 0.082	0.915 ± 0.031	0.912 ± 0.039	0.875 ± 0.053	0.908 ± 0.033	0.882 ± 0.12	0.937 ± 0.1	0.762 ± 0.079	0.435 ± 0.021	0.391 ± 0.03
MDAMB453 BREAST	1.05 ± 0.018	1.04 ± 0.043	1.07 ± 0.026	1.11 ± 0.044	1.15 ± 0.1	1.11 ± 0.061	1 ± 0.026	1.01 ± 0.071	1.03 ± 0.021	1.05 ± 0.034	1.01 ± 0.046	1.07 ± 0.032	0.794 ± 0.091	0.725 ± 0.094	0.541 ± 0.038	0.413 ± 0.015
MDAMB468 BREAST	1.07 ± 0.03	0.991 ± 0.044	1.07 ± 0.03	1 ± 0.041	1.1 ± 0.038	1.12 ± 0.032	1.05 ± 0.057	1.03 ± 0.064	0.977 ± 0.023	1.04 ± 0.046	1.05 ± 0.026	0.987 ± 0.041	1.03 ± 0.047	0.507 ± 0.047	0.146 ± 0.01	0.151 ± 0.018
MFM223 BREAST	1.17 ± 0.042	1.13 ± 0.078	1.16 ± 0.11	1.19 ± 0.062	1.15 ± 0.14	1.15 ± 0.1	1.09 ± 0.031	1.03 ± 0.064	1.1 ± 0.065	1.02 ± 0.035	1.05 ± 0.094	0.963 ± 0.077	0.794 ± 0.082	0.699 ± 0.063	0.47 ± 0.029	0.378 ± 0.027
MG63 BONE	1.033 ± 0.0085	1.01 ± 0.044	1.039 ± 0.0042	1.04 ± 0.021	1.07 ± 0.035	1.07 ± 0.031	0.914 ± 0.02	0.868 ± 0.034	0.974 ± 0.0053	0.966 ± 0.015	0.99 ± 0.024	0.987 ± 0.013	0.816 ± 0.003	0.594 ± 0.021	0.298 ± 0.021	0.227 ± 0.007
MHM BONE	1.01 ± 0.029	0.98 ± 0.018	1.037 ± 0.0076	1.03 ± 0.011	1.05 ± 0.019	1.03 ± 0.016	0.966 ± 0.015	0.985 ± 0.044	0.986 ± 0.016	0.989 ± 0.031	0.979 ± 0.019	0.999 ± 0.011	0.986 ± 0.034	0.96 ± 0.041	0.764 ± 0.02	0.629 ± 0.028
NCIH441 LUNG	1.16 ± 0.055	1.1 ± 0.056	1.064 ± 0.0076	1.07 ± 0.02	1.08 ± 0.093	1.09 ± 0.052	1.15 ± 0.14	1 ± 0.13	0.945 ± 0.064	0.954 ± 0.056	0.939 ± 0.065	0.927 ± 0.12	0.991 ± 0.022	0.856 ± 0.049	0.626 ± 0.08	0.588 ± 0.0087
NY BONE	1.02 ± 0.024	1.03 ± 0.065	1.05 ± 0.057	1.04 ± 0.018	1.12 ± 0.023	1.06 ± 0.043	1.04 ± 0.049	1.02 ± 0.068	0.962 ± 0.012	0.941 ± 0.029	0.9803 ± 0.0061	0.964 ± 0.03	0.69 ± 0.011	0.672 ± 0.025	0.432 ± 0.025	0.129 ± 0.0021
OS25HAL BONE	1.03 ± 0.032	1.01 ± 0.0072	1.02 ± 0.011	1.04 ± 0.013	1.11 ± 0.013	1.05 ± 0.046	1.04 ± 0.054	0.982 ± 0.029	0.962 ± 0.045	0.9613 ± 0.0038	0.97 ± 0.024	0.947 ± 0.015	0.796 ± 0.062	0.605 ± 0.092	0.428 ± 0.069	0.264 ± 0.029
OSHN BONE	1.091 ± 0.005	1.073 ± 0.0079	1.09 ± 0.022	1.07 ± 0.018	1.12 ± 0.037	1.1 ± 0.018	1.13 ± 0.02	1.08 ± 0.032	1.01 ± 0.028	1 ± 0.029	1 ± 0.025	0.993 ± 0.05	0.991 ± 0.02	0.206 ± 0.0076	0.407 ± 0.036	0.218 ± 0.011
PCI30 HEADNECK	1.07 ± 0.085	1.04 ± 0.069	1.08 ± 0.1	1.07 ± 0.03	1.09 ± 0.062	0.931 ± 0.065	0.81 ± 0.06	0.781 ± 0.016	0.891 ± 0.04	0.873 ± 0.077	1.01 ± 0.067	1.04 ± 0.084	0.964 ± 0.035	0.625 ± 0.032	0.567 ± 0.016	0.564 ± 0.0087
RDES SOFT TISSUE	1.27 ± 0.17	1.18 ± 0.037	1.23 ± 0.067	1.02 ± 0.19	1.02 ± 0.24	1.02 ± 0.21	1.67 ± 0.18	1.57 ± 0.2	1.25 ± 0.15	1.26 ± 0.18	1.3 ± 0.047	1.3 ± 0.079	1.07 ± 0.17	0.245 ± 0.018	0.249 ± 0.025	0.195 ± 0.0049
